Experiments:
[1] = target: GRPR (Homo sapiens, UniProt P30550); settings: non-clinical models; cited from earlier work
[2] = target: GRPR expressed in breast, prostate, and Gastro Intestinal Stromal Tumor (GIST) (Homo sapiens, UniProt P30550); settings: non-clinical models; cited from earlier work
[3] = Radiochemical purity (RCP) stability of 177Lu-NeoB drug product formulations over shelf life (72 h), lab-scale batches; format: physicochemical; settings: Table 7: gentisic acid 1000 μg/mL, ascorbic acid 15000 μg/mL, Kolliphor HS 15 100 μg/mL, about 200 mCi, 10 mCi/mL; end of shelf life (72 hours)
Method: “Radiochemical purity”: is that percentage of the stated radionuclide that is present in the stated chemical or biological form. Radiochromatography methods, such as HPLC method or instant Thin Layer Chromatography method (ITLC), are the most commonly accepted methods for determining radiochemical purity in the nuclear pharmacy.
The stability of the ^177Lu-labelled product over 72 hours with the same antioxidant amount present in the Lutathera formulation. In particular, the following conditions are reproduced: […] step; • Kolliphor HS 15:1 mg added before the labelling step; • Peptide: Lu ratio≥1.5; […] during the formulation step; • Final volumetric Activity 10 mCi/mL; • Final pH 4-6; • Reaction buffer: Acetic acid/acetate buffer;
The radiolabelling tests are carried out both manually and automatically by using the MiniAlO synthesizer. The synthesis procedure is developed as follows: • 1. Transferring of ^177LuCl3 into reactor; • 2. Transferring of the reaction buffer into reactor. The reaction buffer is composed of sodium acetate buffer and gentisic acid. The acetate buffer allows to maintain the labelling pH between 4-5, while the gentisic acid protects the peptide from radiolysis during the labelling step; • 3. Addition of the NeoB1 solution containing Kolliphor HS 15 into reactor; • 4. Heating at 95° C. for 5 minutes; […]

Chain of GRPR (P30550 whole entry): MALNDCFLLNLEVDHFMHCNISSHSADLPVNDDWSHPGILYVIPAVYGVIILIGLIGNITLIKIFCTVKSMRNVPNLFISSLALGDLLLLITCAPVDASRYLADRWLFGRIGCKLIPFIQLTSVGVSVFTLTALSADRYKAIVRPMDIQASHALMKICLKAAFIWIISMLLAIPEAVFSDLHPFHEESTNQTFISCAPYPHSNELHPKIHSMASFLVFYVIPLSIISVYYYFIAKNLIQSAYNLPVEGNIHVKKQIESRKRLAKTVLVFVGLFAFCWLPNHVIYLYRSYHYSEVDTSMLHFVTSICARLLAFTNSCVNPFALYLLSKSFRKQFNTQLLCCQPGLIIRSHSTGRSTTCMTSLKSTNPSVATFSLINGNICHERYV
Chain of GRPR expressed in breast, prostate, and Gastro Intestinal Stromal Tumor (GIST) (P30550 whole entry): as above

Row | SMILES | degree of internalization upon binding to the specific receptor [1] | affinity to the GRPR [2] | Radiochemical purity (%) at end of shelf life [3]
1 | CC(C)CC(CC(C)C)NC(=O)[C@H](Cc1cnc[nH]1)NC(=O)CNC(=O)[C@@H](NC(=O)[C@H](C)NC(=O)[C@H](Cc1c[nH]c2ccccc12)NC(=O)[C@H](CCC(N)=O)NC(=O)[C@@H](Cc1ccccc1)NC(=O)COCC(=O)Nc1ccc(CNC(=O)CN2CCN(CC(=O)O)CCN(CC(=O)O)CCN(CC(=O)O)CC2)cc1)C(C)C [[^68Ga]-NeoB, metal not drawn] | low degree of internalization | high affinity | –
2 | CC(C)CC(CC(C)C)NC(=O)[C@H](Cc1cnc[nH]1)NC(=O)CNC(=O)[C@@H](NC(=O)[C@H](C)NC(=O)[C@H](Cc1c[nH]c2ccccc12)NC(=O)[C@H](CCC(N)=O)NC(=O)[C@@H](Cc1ccccc1)NC(=O)COCC(=O)Nc1ccc(CNC(=O)CN2CCN(CC(=O)O)CCN(CC(=O)O)CCN(CC(=O)O)CC2)cc1)C(C)C [[^177Lu]-NeoB, metal not drawn] | – | – | over 95%

— patent publication US12685790B2, “Stable, concentrated radiopharmaceutical composition” (NOVARTIS AG, priority 2019, dated 2026)
